Source: BindingDB's records for PubMed 20033049 (Institute)

How the values were obtained:
[1] = Inhibition of TEL fused BMX (unknown origin) transformed in mouse BaF3 cells
[2] = Inhibition of TEL fused BLK (unknown origin) transformed in mouse BaF3 cells

`C=CC(=O)Nc1cccc(Oc2nc(Nc3ccc(N4CCN(C)CC4)cc3)ncc2Cl)c1` showed an IC50 [1] of 0.4 nM and an IC50 [2] of 20 nM.
